This is an account of results in paper PMC11928584, “H105A peptide eye drops promote photoreceptor survival in murine and human models of retinal degeneration” (Communications Medicine, 2025).

Where a SMILES comes first, the peptide text is derived from it.

In data set [1] the target is T1, recombinant human PEDF-R[1–288] (Homo sapiens, UniProt Q96AD5).
T1 construct: SUMOstar (N); His tag (N); made in house; host or cells: Escherichia coli Rosetta(DE3), co-transformed with pGro7 (groES-groEL)
T1 sequence (Q96AD5 1-288): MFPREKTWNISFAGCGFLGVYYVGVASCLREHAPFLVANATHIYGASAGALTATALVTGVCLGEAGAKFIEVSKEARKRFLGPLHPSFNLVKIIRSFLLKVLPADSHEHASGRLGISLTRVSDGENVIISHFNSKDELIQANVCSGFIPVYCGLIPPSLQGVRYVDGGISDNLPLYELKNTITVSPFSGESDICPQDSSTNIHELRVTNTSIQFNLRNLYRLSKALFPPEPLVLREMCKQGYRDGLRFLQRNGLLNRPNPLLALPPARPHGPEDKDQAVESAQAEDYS
Kind of data set: Phospholipase A2 activity assay (EnzChek). It is filed as biochemical. The settings on record: purified recombinant PEDF-R in the presence of peptides. From the text:
To obtain the PEDF-R protein, the following procedure was followed. For plasmid construction, the plasmid used for expression was pE-SUMOstar-PEDF-R[1–288] C-terminal TwinStrep tagged. This plasmid contained the coding sequence for the human PEDF-R open reading frame between positions 1 and 288. For transformation: The expression plasmid and pGro7(groES-groEL) were co-transformed into Escherichia coli Rosetta(DE3) to obtain colonies for recombinant protein expression[34],[35]. The transformed cells were plated on Luria-Bertani (LB) agar plate containing 10 μg/ml chloramphenicol and 100 µg/ml ampicillin followed by overnight incubation at 37 °C to obtain colonies. A total of 100 ml of LB media containing 10 μg/ml chloramphenicol and 100 µg/ml ampicillin was inoculated with a single colony and incubated at 37 °C with vigorous shaking overnight. Then, 1 liter of LB media containing 0.5 mg/ml L-(+) arabinose, 2% D-(+)-Glucose, 10 μg/ml chloramphenicol and 100 µg/ml ampicillin was inoculated with 2% of the overnight culture and incubated at 37 °C with vigorous shaking until the O.D.600 nm reached 0.5-0.6. […]
Phospholipase A2 (PLA2) activity was determined using EnzChek™ Phospholipase A2 Assay Kit (Thermo Fisher Scientific, cat. E10217) according to the manufacturer’s instructions and as described before. […] Fluorescence emission was measured at 515 nm with excitation at 460 nm. […]

Data set [2] is described as follows: Stability of peptide H105A against temperature (storage). It is filed as physicochemical. As to the method:
Lyophilized peptides were dissolved in sterile HBSS at 1 mg/ml and stored at −20 °C. Before the peptides were used, the peptide solution was brought to room temperature and subjected to centrifugation (Eppendorf, Centrifuge 5430 R) at 20,800 x g for 10 min at 4 °C to clear and separate particulate material. In case a precipitate was found, the pH of the solution was adjusted to neutral pH with either NaOH or HCl and all peptides were soluble. The concentration of peptide solutions was determined using spectrophotometry (NanoDrop, Thermo Fisher Scientific). The stability of peptide H105A against temperature was performed and summarized in Supplementary Table 2.
Supplementary Table 2. Stability of 17- mer[H105A] peptide.
Concentration (mg/mL) Store Concentration (mg/mL)
*FT, Freeze and thaw cycles daily

For `CC[C@H](C)[C@H](NC(=O)[C@H](CC(C)C)NC(=O)[C@H](CC(=O)O)NC(=O)[C@H](Cc1ccc(O)cc1)NC(=O)[C@H](Cc1ccc(O)cc1)NC(=O)[C@H](CC(C)C)NC(=O)[C@H](C)NC(=O)[C@H](CCCNC(=N)N)NC(=O)[C@H](C)NC(=O)[C@@H](NC(=O)[C@@H](NC(=O)[C@H](CO)NC(=O)[C@H](CCC(=O)O)NC(=O)[C@@H](NC(=O)[C@H](CCCNC(=N)N)NC(=O)[C@@H](N)CCC(N)=O)[C@@H](C)O)[C@@H](C)CC)[C@@H](C)CC)C(=O)N[C@@H](CO)C(=O)O` [H105A] (H-QRTESIIARALYYDLIS-OH), the “stimulation of PLA2 activity of PEDF-R” value in data set [1] is reported as “functional effectors of PEDF-R”. The “Concentration, Day 8” value in data set [2] (sample 1, stored at RT) was 1080 µg/mL; in data set [2] (sample 2, stored at 4°C), 1160 µg/mL; in data set [2] (sample 3, stored at -20°C) it was 1080 µg/mL; in data set [2] (sample 4, stored at -20°C [FT], freeze and thaw cycles daily), 1280 µg/mL.
